Reference: patent US20230295162A1 (EÖTVÖS LORÁND TUDOMÁNYEGYETEM, priority 2020, published 2023)

Tests used:
[1] = system: representative cell lines; assay: Cytotoxicity on representative cell lines (summary statement); type: cell-based; details: Homo sapiens; summary range, ca.
[2] = system: MDA-MB-231 breast cancer cell line; assay: CellTiter-Glo IC50 (Table 3); type: cell-based; details: Homo sapiens
Method: (§1) Some representative imipridones and ONC212 as reference were further tested on the following human malignant cell lines: PC3 and LNCap (prostate carcinoma); BxPC3, MiaPaCa2 and Panc1 (pancreatic cancer); A549, HCC827, H1993 and H520 (lung carcinoma); MDA-MB-453 and MDA-MB-231 (breast cancer) (see Table 2 and FIGS. 1-11).
(§2) Cell lines were maintained according to the instructions provided by ATCC (https://www.lgcstandards-atcc.org/) in a 5% CO2 humidified incubator maintained at 37° C. temperature. Effects of compounds on cell viability were measured via CellTiter-Glo® luminescent cell viability assay (Promega, Madison, WI, USA) Cells were plated at 1000 cells/well onto a flat-bottomed, white 96 well plate (BRANDplates, cat. no.: 781965). […] After the treatment, medium was removed and CellTiter-Glo® reagent was added. The luminescence signal was recorded using a microplate reader (BioTek Synergy 2 Multi-Mode Reader, BioTek, Winooski, VT, USA).
(§3) Cell viability data (% of untreated control cells) was evaluated with Microsoft Excel. Dose-response curves (using a non-linear regression model, log (inhibitor) vs response, variable slope) were generated and IC50 values were determined using Graph Pad Prism 5.02 software (GraphPad Software, San Diego, CA, USA).

[3] = system: MDA-MB-453 breast cancer cell line; assay: CellTiter-Glo IC50 (Table 3); type: cell-based; details: Homo sapiens
Method: as §1, §2, §3

Detroit 562 cell line = assay: Additional in vitro IC50 tests (Table 3); type: cell-based; details: Homo sapiens
Method: as §2, §3

H2228 cell line = assay: Additional in vitro IC50 tests (Table 3); type: cell-based; details: Homo sapiens, NCI-H2228
Method: as §2, §3

SCC-25 cell line = assay: Additional in vitro IC50 tests (Table 3); type: cell-based; details: Homo sapiens
Method: as §2, §3

Fadu cell line = assay: Additional in vitro IC50 tests (Table 3); type: cell-based; details: Homo sapiens
Method: as §2, §3

EBC-1 cell line = assay: Additional in vitro IC50 tests (Table 3); type: cell-based; details: Homo sapiens
Method: as §2, §3

[4] = system: MiaPaCa2 pancreatic cancer cell line; assay: CellTiter-Glo IC50 (Example 19); type: cell-based; details: Homo sapiens, MIA PaCa-2, 72 h
Method: as §1, §2, §3

[5] = system: BxPC3 pancreatic cancer cell line; assay: CellTiter-Glo IC50 (Example 19); type: cell-based; details: Homo sapiens, BXPC-3, 72 h
Method: as §1, §2, §3

[6] = system: A549 lung carcinoma cell line; assay: CellTiter-Glo IC50 (Example 19); type: cell-based; details: Homo sapiens, 72 h
Method: as §1, §2, §3

[7] = system: Panc1 pancreatic cancer cell line; assay: CellTiter-Glo IC50 (Example 19); type: cell-based; details: Homo sapiens, PANC-1, 72 h
Method: as §1, §2, §3

[8] = system: H1993 lung carcinoma cell line; assay: CellTiter-Glo IC50 (Example 19); type: cell-based; details: Homo sapiens, NCI-H1993, 72 h
Method: as §1, §2, §3

[9] = system: H520 lung carcinoma cell line; assay: CellTiter-Glo IC50 (Example 19); type: cell-based; details: Homo sapiens, NCI-H520, 72 h
Method: as §1, §2, §3

[10] = system: PC3 human prostate cancer cell line; assay: CellTiter-Glo IC50 (Example 19); type: cell-based; details: 72 h
Method: as §1, §2, §3

[11] = system: LNCap human prostate cancer cell line; assay: CellTiter-Glo IC50 (Example 19); type: cell-based; details: 72 h
Method: as §1, §2, §3

[12] = system: HCC827 lung carcinoma cell line; assay: CellTiter-Glo IC50 (Example 19); type: cell-based; details: Homo sapiens, 72 h
Method: as §1, §2, §3

[13] = system: A2058 (human metastatic melanoma) cells; assay: Colorimetric alamarBlue assay, long treatment; details: Homo sapiens, A2058, 72 h, read-out: cytotoxicity expressed in IC50, A-2058
[14] = system: COLO-205 (human colorectal adenocarcinoma) cells; assay: Colorimetric alamarBlue assay, long treatment; details: COLO 205, 72 h, read-out: cytotoxicity expressed in IC50, COLO-205
[15] = system: MDA-MB-231 human triple-negative breast cancer xenografts; assay: Antitumoral effect on subcutaneous MDA-MB-231 tumor xenografts in SCID mice (Example 23); type: in vivo; details: intraperitoneal
Method: MDA-MB-231 human triple-negative breast cancer xenografts were formed by subcutaneous inoculation of tumor cells into the back of the immunodeficient (SCID) mice. The investigated materials were injected into the animals intraperitoneal every two-three days for 3 weeks.
Forty SCID mice were included in the experiment. Each animal group was kept in separate cage during the experiments. On each cage, there was an identification card with birth date, the date of tumor cell injection, number and gender of animals. The injection of each substance was written on the identification card. Eight animals per substance were used and identified by ear cutting.
MDA-MB-231 human triple-negative breast cancer cells were grown in RPMI-1640 Medium (Sigma Chemical Co., St. Louis, MO), supplemented with 10% fetal bovine serum (Sigma) and 1% penicillin-streptomycin (Sigma) at 37° C. in a humidified atmosphere of 5% CO2. […]
During the experiment weight of the animals and size of the tumors were recorded.
Tumor volume was determined three times a week during the experiment.
Anti-tumor effect of compounds was evaluated also measuring tumor weight in each group after termination of experiment (FIGS. 64 and 65).

| melting point | IC50 [2] | IC50 [3] | IC50 (Detroit 562 cell line) | IC50 (H2228 cell line) | IC50 (SCC-25 cell line) | IC50 (Fadu cell line) | IC50 (EBC-1 cell line) | IC50 [4] | IC50 [5] | IC50 [6] | IC50 [7] | IC50 [8] | IC50 [9] | IC50 [10] | IC50 [11] | IC50 [12] | Structure (SMILES) | other results |
| --- | --- | --- | --- | --- | --- | --- | --- | --- | --- | --- | --- | --- | --- | --- | --- | --- | --- | --- |
| 190.5 °C | 2 nM | 1 nM | 3 nM | 10 nM | 13 nM | 10 nM | 9 nM | 11 nM | 12 nM | 8 nM | 11 nM | 10 nM | 7 nM | 9 nM | 5 nM | 13 nM | O=C1C2=C(CCN(Cc3cc(F)cc(F)c3)C2)N2CCN=C2N1Cc1ccc(F)cc1 [I/7, 4-(4-Fluorobenzyl)-7-(3,5-difluorobenzyl)-2,4,6,7,8,9-hexahydroimidazo[1,2-a]pyrido[3,4-e]pyrimidin-5(1H)-one] | IC50 [1]: 3 to 8 nM |
| 128.8 °C | 1 nM | < 1 nM | 3 nM | 13 nM | 15 nM | 11 nM | 8 nM | 10 nM | 13 nM | 8 nM | 9 nM | 6 nM | 6 nM | 7 nM | 5 nM | 12 nM | [N-]=[N+]=Nc1cccc(CN2CCC3=C(C2)C(=O)N(Cc2ccc(C(F)(F)F)cc2)C2=NCCN23)c1 [I/111, 7-(3-Azidobenzyl)-4-(4-(trifluoromethyl)benzyl)-2,4,6,7,8,9-hexahydroimidazo[1,2-a]pyrido[3,4-e]pyrimidin-5(1H)-one] | – |
| 168 °C | < 1 nM | < 1 nM | 2 nM | 5 nM | 6 nM | 5 nM | 5 nM | 3 nM | 4 nM | 4 nM | 3 nM | 4 nM | 3 nM | 2 nM | 2 nM | 5 nM | O=C1C2=C(CCN(Cc3cc(F)cc(F)c3)C2)N2CCN=C2N1Cc1ccc(C(F)(F)F)cc1 [I/30, 7-(3,5-Difluorobenzyl)-4-(4-(trifluoromethyl)benzyl)-2,4,6,7,8,9-hexahydroimidazo[1,2-a]pyrido[3,4-e]pyrimidin-5(1H)-one] | IC50 [1]: 3 to 8 nM |
| – | 24 nM | 16 nM | 32 nM | 105 nM | 166 nM | 90 nM | 76 nM | 76 nM | 110 nM | 60 nM | 74 nM | 90 nM | 73 nM | 80 nM | 52 nM | 105 nM | O=C1C2=C(CCN(Cc3ccccc3)C2)N2CCN=C2N1Cc1ccc(C(F)(F)F)cc1 [I/1, reference compound] | IC50 [13]: > 10000 nM; IC50 [14]: 250 nM |
| – | – | – | – | – | – | – | – | – | – | – | – | – | – | – | – | – | O=C1C2=C(CCN(Cc3cccc(F)c3)C2)N2CCN=C2N1Cc1ccc(C(F)(F)F)cc1 [I/3, reference compound] | IC50 [13]: > 10000 nM; IC50 [14]: > 10000 nM |
| 155.5 °C | 3 nM | 2 nM | 7 nM | 24 nM | 31 nM | 19 nM | 17 nM | 16 nM | 14 nM | 16 nM | 14 nM | 12 nM | 8 nM | 11 nM | 5 nM | 15 nM | [N-]=[N+]=Nc1ccc(CN2C(=O)C3=C(CCN(Cc4cc(F)cc(F)c4)C3)N3CCN=C23)cc1 [I/107, 4-(4-Azidobenzyl)-7-(3,5-difluorobenzyl)-2,4,6,7,8,9-hexahydroimidazo[1,2-a]pyrido[3,4-e]pyrimidin-5(1H)-one] | – |
| 162.4 °C | – | – | < 1 nM | 3 nM | 4 nM | 2 nM | 3 nM | – | – | – | 2 nM | – | – | – | – | – | O=C1C2=C(CCN(Cc3cc(F)cc(F)c3)C2)N2CCN=C2N1Cc1ccc(Cl)cc1 [I/124, 4-(4-Chlorobenzyl)-7-(3,5-difluorobenzyl)-2,4,6,7,8,9-hexahydroimidazo[1,2-a]pyrido[3,4-e]pyrimidin-5(1H)-one] | tumor volume / tumor growth ([15]; 3 weeks, vs control (Student's t-test)): significant; tumor weight after termination ([15]; after termination of experiment, vs control): highest, significant inhibition |
